According to patent US4567293A, “2-[Para-(2-substituted or unsubstituted-3,3,3-tri-fluoropropyl)phenyl]propionic acid or a salt thereof” (Kureha Kagaku Kogyo Kabushiki Kaisha, priority 1981, dated 1986):

Legend:
[1] = system: carrageenin-induced edema; test: Anti-inflammatory activity: inhibition of carrageenin-induced edema (Example 6); format: in vivo, rat (female Wister); details: 4 hours after carrageenin
Method: Anti-inflammatory activity of the present compound was examined by using 10 female Wister rats of 110 to 130 g of body weight as one group following the method of C. A. Winter [refer to Proc. Soc. Exp. Biol. Med., 111, 544(1962)]in which the ratio of inhibiting the carrageenin-induced edema is determined.
(§1) An aqueous suspension of each specimen in an aqueous 1% carboxymethoxycellulose solution was orally administered to the rat in volume of 1 ml per 100 g body weight. The rat as the control group was administered with only an aqueous 1% solution of carboxymethoxycellulose. One hour after the administration, 0.1 ml of an aqueous 1% solution of carrageenin in physiological saline was injected into the plantar tissue of the right hind paw of the rat. Then, after 4 hours from the injection, the volume of the injected foot was measured to find the volume of swelling by subtracting the volume of foot before the injection from that value.
(§2) By comparing the volume of the swelling of the administered group to that of the control group, the ratio of inhibiting the swelling (I.R., %) was calculated according to the following formula: [formula] wherein T represents the average volume of swelling in the group administered with the specimen, and
(§3) C represents the average volume of swelling in the control group.

[2] = in vivo; details: oral, mouse, in olive oil, 14 days observation
Method: Acute toxicity of the present compound were determined as follows.
Each of the specimens was dispersed in an olive oil. The dispersion was administered to an ICR-JCL mouse orally by a stomach sonde at a predetermined amount. After administration, the intoxication symptoms were continuously observed for 14 days. LD50 value was obtained from the cumulative mortality of the mice by applying the data to the Litchfield-Wilcoxon's graphical method.

[3] = system: carrageenin-induced edema; test: Anti-inflammatory activity: inhibition of carrageenin-induced edema (Example 7, rats of 92 to 112 g); format: in vivo, rat (female Wister)
Method: […] A. Winter [refer to Proc. Soc.
as §1, §2, §3

Row | Compound | Inhibitation of carrageenin-induced edema ([1]; oral dose 2.5 mg/Kg) | Inhibitation of carrageenin-induced edema ([1]; oral dose 5 mg/Kg) | Inhibitation of carrageenin-induced edema ([1]; oral dose 10 mg/Kg) | Inhibitation of carrageenin-induced edema ([1]; oral dose 25 mg/Kg) | Inhibitation of carrageenin-induced edema ([1]; oral dose 50 mg/Kg) | Inhibitation of carrageenin-induced edema ([1]; oral dose 100 mg/Kg) | Inhibitation of carrageenin-induced edema ([1]; oral dose 200 mg/Kg) | LD50 at 336 h [2] | Inhibition of carrageenin-induced edema ([3]; oral dose 25 mg/kg) | Inhibition of carrageenin-induced edema ([3]; oral dose 100 mg/kg)
1 | CC(C(=O)O)c1ccc(CC(C(F)(F)F)C(F)(F)F)cc1 (centres unmarked) [Specimen I, 2-[p-(2-trifluoromethyl-3,3,3-trifluoropropyl)phenyl]propionic acid] | 37% | 40% | 46% | 50% | 55% | 57% | 63% | 1100 mg/kg | – | –
2 | CC(C(=O)O)c1ccc(CC(C)C(F)(F)F)cc1 (centres unmarked) [Specimen II, 2-[p-(2-methyl-3,3,3-trifluoropropyl)phenyl]propionic acid] | – | 37% | 40% | – | 50% | 54% | 65% | 1040 mg/kg | – | –
3 | CC(C(=O)O)c1ccc(CCC(F)(F)F)cc1 (centres unmarked) [Specimen III, 2-[p-(3,3,3-trifluoropropyl)phenyl]propionic acid] | – | – | – | – | – | – | – | 1000 mg/kg | 38% | 44%
4 | CC(C)Cc1ccc(C(C)C(=O)O)cc1 (centres unmarked) [Specimen IV, 2-(p-isobutylphenyl)propionic acid, reference compound] | – | – | – | 29% | 40% | 42% | 52% | – | – | –
5 | CC(=O)Oc1ccccc1C(=O)O [Specimen V, acetyl salicyclic acid, reference compound] | – | – | – | – | – | – | – | – | 10% | 28%
